Experimental findings from the SangsterLogP compilation are described below.

The nature of one data set: method code SF-HPLC, from Li, N. Y., Li, Y., & Gorrod, J. W. (1992). Determination of partition coefficients and ionisation constants of(S)(-)-nicotine and certain metabolites. Med. Sci. Res., 20(23)901-902. As to conditions: pH 2.0.
With `O=C(O)Cc1cccnc1`, the logD was -2.42.

`O=C(O)CCC(=O)c1cccnc1`: the log distribution coefficient (logD) was -1.06.

Still in this data set, the particulars now being: pH 7.4.
As to `CN1C(=O)CCC1c1ccc[n+]([O-])c1` (centres undefined), the pH-dependent lipophilicity (logD) was -2.54.

For the compound `CNC(=O)CCC(=O)c1cccnc1`, the logD is -0.13.

With `CN1C(=O)C(O)CC1c1cccnc1` (centres undefined), the log distribution coefficient (logD) is -1.22.

With `CN1C(=O)CC[C@H]1c1cccnc1`, the logD stood at 0.07.

Staying with this data set, now noted: pH 12.0.
For the compound `O=C1CCC(c2ccc[n+]([O-])c2)N1` (centres undefined), the logD is -1.01.

`CN1C(=O)CCC1(O)c1cccnc1` (centres undefined): the logD is -0.57.

As to `O=C1CC[C@@H](c2cccnc2)N1`, the logD is -0.4.
